Measurements: patent publication US8362013B2, “Salt of ABT-263 and solid-state forms thereof” (AbbVie Inc., priority 2009, dated 2013)

Assays:
[1] = stability in an oxidative environment; type: physicochemical
[2] = test system: small-cell lung cancer (SCLC); conditions: cited from earlier work
[3] = test system: pro-apoptotic effects of other chemotherapeutic agents; conditions: cited from earlier work
lymphoid malignancies = conditions: cited from earlier work

Row | SMILES | degradation in an oxidative environment [1] | single-agent activity [2] | potentiation of pro-apoptotic effects of other chemotherapeutic agents [3] | single-agent activity (lymphoid malignancies)
1 | CC1(C)CCC(c2ccc(Cl)cc2)=C(CN2CCN(c3ccc(C(=O)NS(=O)(=O)c4ccc(N[C@H](CCN5CCOCC5)CSc5ccccc5)c(S(=O)(=O)C(F)(F)F)c4)cc3)CC2)C1 [ABT-263] | susceptible to degradation |  |  | 
2 | CN(C)CC[C@H](CSc1ccccc1)Nc1ccc(S(=O)(=O)NC(=O)c2ccc(N3CCN(Cc4ccccc4-c4ccc(Cl)cc4)CC3)cc2)cc1[N+](=O)[O-] [ABT-737, N-(4-(4-((4′-chloro-(1,1′-biphenyl)-2-yl)methyl)piperazin-1-yl)benzoyl)-4-(((1R)-3-(dimethylamino)-1-((phenylsulfanyl)methyl)propyl)amino)-3-nitrobenzene-sulfonamide] |  | single-agent activity | potentiates | single-agent activity
